Test: logP by HPLC on reversed-phase column (C 18), EEC Directive 79/831 Annex V.A8, Method B (0.1% aqueous formic acid / acetonitrile, 40°C)
Type: physicochemical
Conditions: c18 reversed-phase hplc; LogP method B: HPLC reversed-phase C 18, 40°C, 0.1% aqueous formic acid / acetonitrile
Protocol: Calibration was carried out using unbranched alkan-2-ones (having 3 to 16 carbon atoms) with known logP values (determination of the logP values by the retention times using linear interpolation between two successive alkanones).

chromatographic logP | SMILES
3.8 | Cc1cc(C(=O)N(C2CC2)S(=O)(=O)c2cccc(Cl)c2Cl)c(C)o1 [compound 5]
4.4 | Cc1cc(C(=O)N(C2CC2)S(=O)(=O)c2ccc(Cl)c(Cl)c2Cl)c(C)o1 [compound 6]
3.8 | O=C(c1ccsc1I)N(C1CC1)S(=O)(=O)c1cccc(Cl)c1Cl [compound 19]
3.3 | COc1cscc1C(=O)N(C1CC1)S(=O)(=O)c1cccc(Cl)c1Cl [compound 25]
3.9 | COc1cscc1C(=O)N(C1CC1)S(=O)(=O)c1ccc(Cl)c(Cl)c1Cl [compound 27]
3.3 | Cn1cc(C(=O)N(C2CC2)S(=O)(=O)c2cccc(Cl)c2Cl)c(C(F)(F)F)c1 [compound 36]
3.9 | Cn1cc(C(=O)N(C2CC2)S(=O)(=O)c2ccc(Cl)c(Cl)c2Cl)c(C(F)(F)F)c1 [compound 37]
2.7 | Cc1cc(C(=O)N(C2CC2)S(=O)(=O)c2cccc(Cl)c2Cl)nn1C [compound 74]
3.3 | Cc1cc(C(=O)N(C2CC2)S(=O)(=O)c2ccc(Cl)c(Cl)c2Cl)nn1C [compound 75]
3.6 | CC(C)c1nn(C)c(F)c1C(=O)N(C1CC1)S(=O)(=O)c1cccc(Cl)c1Cl [compound 93]
3.8 | CC(C)c1nn(C)c(F)c1C(=O)N(C1CC1)S(=O)(=O)c1ccc(Cl)cc1Cl [compound 96]
4 | CC(C)c1nn(C)c(F)c1C(=O)N(C1CC1)S(=O)(=O)c1ccc(C(F)(F)F)cc1Cl [compound 97]
4.3 | Cn1nc(-c2ccccc2)c(C(=O)N(C2CC2)S(=O)(=O)c2ccc(Cl)c(Cl)c2Cl)c1F [compound 100]
3.7 | Cn1nc(-c2ccccc2)c(C(=O)N(C2CC2)S(=O)(=O)c2cccc(Cl)c2Cl)c1F [compound 101]
2.8 | Cn1nc(C(F)F)c(C(=O)N(C2CC2)S(=O)(=O)c2ccccc2Cl)c1F [compound 103]
3.2 | Cn1nc(C(F)F)c(C(=O)N(C2CC2)S(=O)(=O)c2cccc(Cl)c2Cl)c1F [compound 104]
3.4 | Cn1nc(C(F)F)c(C(=O)N(C2CC2)S(=O)(=O)c2ccc(Cl)cc2Cl)c1F [compound 105]
4.1 | Cn1nc(C(F)(F)F)c(C(=O)N(C2CC2)S(=O)(=O)c2ccc(Cl)c(Cl)c2Cl)c1F [compound 108]
2.8 | CC(F)c1nn(C)cc1C(=O)N(C1CC1)S(=O)(=O)c1cccc(Cl)c1Cl (stereo not drawn) [compound 119]
2.9 | Cn1cc(C(=O)N(C2CC2)S(=O)(=O)c2cccc(Cl)c2Cl)c(C(F)F)n1 [compound 221]
4.2 | Cn1nc(C2CC2)c(C(=O)N(C2CC2)S(=O)(=O)c2ccc(Cl)c(Cl)c2Cl)c1Cl [compound 223]
3.9 | Cn1nc(C2CC2)c(C(=O)N(C2CC2)S(=O)(=O)c2ccc(Cl)c(Cl)c2Cl)c1F [compound 224]
4.7 | Cn1nc(C2CC2)c(C(=O)N(C2CC2)S(=O)(=O)c2cccc(Cl)c2Cl)c1Cl [compound 225]
3.9 | Cc1nn(C)c(C#N)c1C(=O)N(C1CC1)S(=O)(=O)c1ccc(Cl)c(Cl)c1Cl [compound 228]
3.6 | Cc1nn(C)c(N(C)C)c1C(=O)N(C1CC1)S(=O)(=O)c1ccc(Cl)c(Cl)c1Cl [compound 229]
3.2 | COc1c(C(=O)N(C2CC2)S(=O)(=O)c2ccc(Cl)c(Cl)c2Cl)c(C)nn1C [compound 230]
3.6 | Cc1nn(C)c(Oc2ccc(Cl)cc2)c1C(=O)N(C1CC1)S(=O)(=O)c1ccccc1Cl [compound 261]
3.2 | COc1nn(C)c(Cl)c1C(=O)N(C1CC1)S(=O)(=O)c1cccc(Cl)c1Cl [compound 278]
3.8 | COc1nn(C)c(Cl)c1C(=O)N(C1CC1)S(=O)(=O)c1ccc(Oc2ccccc2)cc1 [compound 280]
3.8 | COc1nn(C)c(Cl)c1C(=O)N(C1CC1)S(=O)(=O)c1ccc(Cl)c(Cl)c1Cl [compound 282]

Reference: EP2540163A1, “Nematocide N-cyclopropyl-sulfonylamide derivatives” (Bayer CropScience AG, priority 2011, dated 2013)
